# Measured values taken from patent publication US4180578A, “2,4-Diamino-5-(4'-methylthio)benzylpyrimidenes, compounds, compositions and method of use” (Ludwig Heumann, & Co. GmbH, priority 1977, dated 1979).
# What was measured:
# Serum level, rat = assay type: in vivo; details: po, 50 mg/kg i.g.
# Protocol: |Serum level, rat (50 mg/kg i.g.)
# in vivo = details: po, mouse, intragastral, safety limits p = 0.05 printed for TMP: lower 2105.5, upper 3629.8
# Source text: 2,4-diamino-5-(3',5'-dimethoxy-4'-S-methyl)-
# benzylpyrimidine (mouse, intragastral administration) (determined
# according to J.T. Litchfield and F. Wilcoxon in "J. Pharmacol.
# E. Coli = experiment: MIC, serial dilution test, DST-Agar; assay type: cell-based; details: Escherichia coli, n = 15, DST-Agar, read-out: Geometrical mean value of MIC
# Source text: (§1) MIC values in μg/ml (serial dilution test, DST-Agar)
# (§2) Geometrical mean value of MIC in μg/ml
# Enterococcus = experiment: MIC, serial dilution test, DST-Agar; assay type: cell-based; details: n = 2, DST-Agar, read-out: Geometrical mean value of MIC
# Source text: as §1, §2
# Proteus = experiment: MIC, serial dilution test, DST-Agar; assay type: cell-based; details: n = 3, DST-Agar, read-out: Geometrical mean value of MIC
# Source text: as §1, §2
# Klebsiellae = experiment: MIC, serial dilution test, DST-Agar; assay type: cell-based; details: n = 3, DST-Agar, read-out: Geometrical mean value of MIC
# Source text: as §1, §2
SMILES,"concentration at 0.5 h (Serum level, rat) [ng/mL]","concentration at 1 h (Serum level, rat) [ng/mL]",LD50 (in vivo) [mg/kg],MIC (E. Coli) [µg/mL],MIC (Enterococcus) [µg/mL],MIC (Proteus) [µg/mL],MIC (Klebsiellae) [µg/mL]
"COc1cc(Cc2cnc(N)nc2N)cc(OC)c1SC [2,4-diamino-5-(3',5-dimethoxy-4'-methylthio)-benzylpyrimidine]",5000,2700,> 5000,0.142,0.156,0.992,0.248
"COc1cc(Cc2cnc(N)nc2N)cc(OC)c1OC [TMP, 2,4-diamino-5-(3'4',5'-trimethoxybenzyl)-pyrimidine]",4500,3300,2760,0.108,0.078,0.625,0.496
